For one data set, the system named is Aphidius rhopalosiphi. As to the kind of experiment: LR50; higher = less toxic. The settings on record: acute; duration: 48 hours; mortality.
A further data set deals with Apis mellifera. As to conditions: acute; duration: 48 hours; oral; unspecified; mortality.
Another data set has as its system Oncorhynchus mykiss. The settings on record: acute; duration: 96 hours; mortality.
In another data set the test system is Pimephales promelas. The settings on record: chronic/long-term; duration: 28 days.
A further data set concerns Daphnia magna. As to conditions: chronic/long-term; duration: 21 days; reproduction.
The subject of the next data set is Tagia sp. The settings on record: acute; duration: 14 days; mortality.

≈ marks a conversion by molar mass, not a printed value.

For the compound `CNC(=O)ON=C(SC)C(=O)N(C)C` [Oxamyl], the LR50 in the data set on Aphidius rhopalosiphi is 0.03 g/ha. The LD50 with Apis mellifera stood at 0.38 µg/piece; in the data set on Colinus virginianus (acute, oral, mortality), 9.5 mg/kg; in the data set with Rattus norvegicus (acute, oral, mortality), 2.5 mg/kg; in the data set on Anas platyrhynchos (acute, oral, unspecified, mortality), 3.16 mg/kg. The LC50 with Oncorhynchus mykiss worked out at 3.13 mg/L (≈ 14.3 µM); with Colinus virginianus (acute, oral, diet, mortality), 766 mg/kg; in the data set on Tagia sp., 112 mg/kg; in the data set with Anas platyrhynchos (short-term, oral, feed, mortality), 340 mg/kg. Further, the NOEC was found to be 10 mg/kg-day with Colinus virginianus (reproduction developmental); 1.43 mg/kg-day in the data set with Rattus norvegicus (reproduction developmental); 0.5 mg/L with Pimephales promelas; 0.0268 mg/L in the data set with Daphnia magna; 50 mg/kg in the data set on Anas platyrhynchos (reproductive). In the data set on Rattus norvegicus (acute, oral, gavage, M/F, clinical signs), this compound yielded an NOAEL of 0.1 mg/kg-day.

A word on the NOAEL: it is the highest dose or exposure tested at which no adverse effect was seen.

For the origin of these results see EPA's ToxValDB 9.5 (doi:10.2903/j.efsa.2005.26r).
